The text below walks through data of ChEMBL document CHEMBL5113393, “Discovery of 2-((2-methylbenzyl)thio)-6-oxo-4-(3,4,5-trimethoxyphenyl)-1,6-dihydropyrimidine-5-carbonitrile as a novel and effective bromodomain and extra-terminal (BET) inhibitor for the treatment of sepsis” (Eur J Med Chem, 2022).

Active and inactive are the calls of the source. The calls are words filed in the database; no cut-off is given here.

In assay [1] the target is T1, Bromodomain-containing protein 4 (Homo sapiens, UniProt O60885). The experiment in a line: Inhibition of BRD4 BD2 (352 to 457 residues) (unknown origin) transfected in Escherichia coli (DE3) using FAM-labeled JQ-1 as fluorescent substrate at 100 uM incubated for 30 mins by competitive fluorescence polarization method relative to control. On the technique in general: Polarisation of emitted light reports the rotation of a fluorescent probe.

Assay [2] has as its target T1, Bromodomain-containing protein 4. In words: Inhibition of BRD4 BD1 (57 to 168 residues) (unknown origin) transfected in Escherichia coli (DE3) using FAM-labeled JQ-1 as fluorescent substrate at 100 uM incubated for 30 mins by competitive fluorescence polarization method relative to control.
Assay [3] deals with RAW264.7. The experiment in a line: Antiinflammatory activity in mouse RAW264.7 cells assessed as inhibition of LPS-induced NO production at 10 uM preincubated for 2 hrs followed by LPS stimulation and measured after 22 hrs by Griess reagent-based assay relative to control. The conditions noted are these: time 24 hrs. Type of assay: functional.
The target of assay [4] is T1, Bromodomain-containing protein 4. The experiment in a line: Inhibition of BRD4 BD1 (unknown origin) using FAM-labeled JQ-1 as fluorescent substrate assessed as inhibition constant incubated for 30 mins by competitive fluorescence polarization method.
Assay [5] has as its system RAW264.7. In words: Antiinflammatory activity in mouse RAW264.7 cells assessed as inhibition of LPS-induced NO production at 5 uM preincubated for 2 hrs followed by LPS stimulation and measured after 22 hrs by Griess reagent-based assay relative to control. Type of assay: functional. The conditions noted are these: time 24 hrs. In general terms: Nitrite, measured by Griess reagent, commonly stands in for NO production.

For assay [6], the target named is T1, Bromodomain-containing protein 4. The experiment in a line: Inhibition of BRD4 BD1 (57 to 168 residues) (unknown origin) transfected in Escherichia coli (DE3) using FAM-labeled JQ-1 as fluorescent substrate at 5 uM incubated for 30 mins by competitive fluorescence polarization method relative to control.
Assay [7] shares this target. In words: Binding affinity to His-tagged biotinylated BRD4 BD1 (unknown origin) assessed as binding constant (Kon) by biolayer interferometry analysis. (Biolayer interferometry detects binding as a change in optical thickness at a sensor tip.)
Assay [8] shares this target. In words: Binding affinity to His-tagged biotinylated BRD4 BD1 (unknown origin) assessed as dissociation constant by biolayer interferometry analysis.
For assay [9] the target is unchanged. The experiment in a line: Inhibition of BRD4 BD2 (352 to 457 residues) (unknown origin) transfected in Escherichia coli (DE3) using FAM-labeled JQ-1 as fluorescent substrate at 5 uM incubated for 30 mins by competitive fluorescence polarization method relative to control.
For assay [10] the target is unchanged. In words: Inhibition of BRD4 BD2 (352 to 457 residues) (unknown origin) transfected in Escherichia coli (DE3) using FAM-labeled JQ-1 as fluorescent substrate at 50 uM incubated for 30 mins by competitive fluorescence polarization method relative to control.
For assay [11] the target is unchanged. In words: Inhibition of BRD4 BD1 (57 to 168 residues) (unknown origin) transfected in Escherichia coli (DE3) using FAM-labeled JQ-1 as fluorescent substrate at 50 uM incubated for 30 mins by competitive fluorescence polarization method relative to control.
Assay [12] has the same target. In words: Binding affinity to His-tagged biotinylated BRD4 BD1 (unknown origin) assessed as dissociation rate constant by biolayer interferometry analysis.
The test system of assay [13] is Mus musculus. The experiment in a line: Protection against LPS-induced sepsis in C57BL/6 mouse model assessed as reduction in hypothermia at 10 mg/kg, ip qd administered for 3 days followed by LPS stimulation for 12 hrs and measured every 1 hr by digital thermometer. The conditions noted are these: time 84.0 hrs. Type of assay: functional, organism-based.

Broadly, the inhibition is the drop in the measured response relative to a control, in per cent. With `COc1cccc(-c2nc(SCc3ccccc3Cl)[nH]c(=O)c2C#N)c1OC`, the inhibition in [1] is 51.3%; in assay [2], 50.7%.
For the molecule `COc1cc(-c2nc(SCc3ccccc3Cl)[nH]c(=O)c2C#N)ccc1OC(F)F`, the inhibition in assay [1] is 59.2%; in assay [2] it was 54.4%.
A word on the Ki: it is the dissociation constant of the complex between target and ligand, obtained from inhibition or displacement. With `COc1cc(-c2nc(SCc3ccccc3F)[nH]c(=O)c2C#N)cc(OC)c1OC`, the inhibition at 10 µM in assay [3] was found to be 94.1%. Further, the Ki in assay [4] worked out at 870 nM. Moreover, in assay [5], the inhibition at 5 µM stood at 33.7%.
One may read the Kd as a measure of binding affinity in units of concentration. `N#Cc1c(O)nc(SCc2ccccc2Cl)nc1-c1ccccc1`: the inhibition turned out to be 7.01% in assay [6]; 46.5% in [1]; 47% in [2]; 19.3% in [9]; 83.5% in assay [10]; 71.9% in assay [11]. In addition, the K in assay [7] was 7.28 10^2/Ms. In addition, the Ki in assay [4] was 12300 nM. Also, in assay [8], the Kd amounted to 184000 nM. For the same molecule, the Kdiss in [12] is 1.34 10^-1/s.
As to `COc1cc(OC)cc(-c2nc(SCc3ccccc3Cl)[nH]c(=O)c2C#N)c1`, the values for the inhibition in [1] and in assay [2] were 47.2% and 40.3%, respectively.
As for `Cc1sc2c(c1C)C(c1ccc(Cl)cc1)=N[C@@H](CC(=O)Nc1ccc(O)cc1)c1nnc(C)n1-2` [BIRABRESIB], in [13], the outcome was Active. Moreover, the inhibition at 10 µM in [3] came out at 99.9%. Also, the inhibition at 5 µM in [5] is 93.4%.
Regarding `N#Cc1c(-c2ccc3c(c2)OCCO3)nc(SCc2ccccc2Cl)[nH]c1=O`, the figures for the inhibition in [1] and in assay [2] were 53.8% and 55.5%, respectively.
Consider `COc1cc(-c2nc(SCc3ccc(C)cc3)[nH]c(=O)c2C#N)cc(OC)c1OC`, for which, in [3], the inhibition at 10 µM is 87.4%. Further, the Ki in assay [4] worked out at 1380 nM. The inhibition at 5 µM in [5] is 65.3%.
The like results for `COc1cc(-c2nc(SCc3cccc(C)c3)[nH]c(=O)c2C#N)cc(OC)c1OC` were, in that order, 75.5%, 1250 nM and 14.9%.
Regarding `COc1cc(-c2nc(SCc3ccccc3Cl)[nH]c(=O)c2C#N)cc(O)c1OC`, the inhibition was 63.4% in assay [1] and 69.3% in assay [2]. For the same molecule, the Ki in assay [4] came to 1950 nM.
`Oc1ccc(-c2[nH]c(-c3ccccc3O)nc2-c2ccccc2)cc1`: the inhibition was found to be 11.8% in assay [6], 3.96% in [9], 17.2% in [10] and 53% in [11].
For `COc1ccc(-c2nc(NCc3ccccc3)[nH]c(=O)c2C#N)cc1OC`, the Ki in assay [4] was 16300 nM.
As to `COc1ccc(OC)c(-c2nc(SCc3ccccc3Cl)[nH]c(=O)c2C#N)c1`, the inhibition was 43% in assay [1] and 51.6% in [2].
As for `Cc1cccc(OCc2occc2C(=O)N(C)Cc2cc(O)nc3ccccc23)c1`, the inhibition in [6] was found to be 3.59%; in assay [9], 4.71%; in assay [10] it was 15.1%; in [11], 11.3%.
On to `COc1ccc(-c2nc(SCc3ccccc3Cl)ncc2C#N)cc1OC`, for which the Ki in assay [4] is 4930 nM.
Turning to `COc1ccc(-c2nc(SCc3ccccc3Cl)[nH]c(=O)c2C#N)cc1OC`, the inhibition in [1] turned out to be 68.7%; in [2], 65.1%. The Ki in [4] amounted to 3230 nM.
In the case of `COc1cc(-c2nc(SCc3cccc(C)c3C)[nH]c(=O)c2C#N)cc(OC)c1OC`, the inhibition at 10 µM in assay [3] was 78.2%. In assay [4], the Ki came out at 1730 nM. Further, the inhibition at 5 µM in assay [5] stood at 51.8%.
As to `COc1ccc(-c2nc(SCc3ccccc3Cl)[nH]c(=O)c2C#N)cc1`, the values for the inhibition in assay [1] and in [2] were 18.8% and 44.1%, respectively.
Consider `COc1cc(-c2nc(SCc3cc(C)cc(C)c3)[nH]c(=O)c2C#N)cc(OC)c1OC`, for which the inhibition at 10 µM in assay [3] worked out at 92.1%. For the same molecule, the Ki in [4] was determined as 1480 nM. The inhibition at 5 µM in [5] is 69.3%.
As for `COc1cc(-c2nc(SCc3ccccc3[N+](=O)[O-])[nH]c(=O)c2C#N)cc(OC)c1OC`, the inhibition at 10 µM in assay [3] turned out to be 32.4%. The Ki in [4] came to 790 nM. Also, the inhibition at 5 µM in assay [5] was 29.3%.
As to `CNC(=O)c1cccc(-c2nc(SCc3ccccc3Cl)[nH]c(=O)c2C#N)c1`, the inhibition in [1] is 65.9%; in assay [2], 66.4%.
On the same counts, the results for `COc1ccc(-c2nc(SCc3ccccc3Cl)[nH]c(=O)c2C#N)cc1C` are 55.1% and 53.1%.
In the case of `COc1ccc(-c2nc(SCCc3ccccc3Cl)[nH]c(=O)c2C#N)cc1OC`, the Ki in assay [4] was found to be 7580 nM.
As for `COc1cccc(-c2nc(SCc3ccccc3Cl)[nH]c(=O)c2C#N)c1`, the results for the inhibition in assay [1] and in [2] were 45.1% and 45.3%, respectively.
Regarding `COc1ccc(-c2nc(SCc3ccccc3Cl)n(C)c(=O)c2C#N)cc1OC`, the inhibition at 10 µM in [3] stood at 14.9%. Also, the inhibitory constant (Ki) in [4] amounted to 18300 nM. The inhibition at 5 µM in [5] amounted to 5.19%.
Consider `COc1ccccc1-c1nc(SCc2ccccc2Cl)[nH]c(=O)c1C#N`, for which the inhibition in [1] turned out to be 47.5%; in assay [2] it was 44.3%.
The like results for `N#Cc1c(-c2ccc(OC(F)(F)F)cc2)nc(SCc2ccccc2Cl)[nH]c1=O` were, in that order, 17.1% and 45.8%.
As for `COc1cc(-c2nc(SCc3ccccc3Cl)[nH]c(=O)c2C#N)cc(OC)c1OC`, the K in assay [7] was 3.84 10^4/Ms. Further, the inhibition at 10 µM in [3] is 99.7%. Further, the inhibition amounted to 74.3% in [1] and 84.7% in assay [2]. Besides, the Ki in assay [4] amounted to 1740 nM. Also, the Kd in [8] was 756 nM. In addition, the inhibition at 5 µM in assay [5] was 75.2%. Also, the Kdiss in assay [12] was 2.9 10^-2/s.
With `CCOc1ccc(-c2nc(SCc3ccccc3Cl)[nH]c(=O)c2C#N)cc1OC`, the inhibition in [1] was determined as 55.7%; in assay [2], 64.7%.
The like results for `CCOc1cc(-c2nc(SCc3ccccc3Cl)[nH]c(=O)c2C#N)ccc1OC` were, in that order, 62.4% and 65.3%.
On the same counts, the results for `COC(=O)c1cc(-c2nc(SCc3ccccc3Cl)[nH]c(=O)c2C#N)ccc1OC` are 48% and 42.9%.
For the molecule `COc1cc(-c2nc(SCc3ccccc3C(F)(F)F)[nH]c(=O)c2C#N)cc(OC)c1OC`, in [3], the inhibition at 10 µM turned out to be 81%. Also, in [4], the Ki worked out at 1190 nM. Besides, the inhibition at 5 µM in [5] stood at 62.4%.
For `Cc1cc2nc(SCC(=O)N(C)c3cccc(Cl)c3)[nH]c(=O)c2[nH]1`, the inhibition in assay [6] turned out to be 4.63%; in assay [9], 3.96%; in assay [10], 17.2%; in [11], 14.7%.
Turning to `N#Cc1c(-c2ccc3c(c2)OCO3)nc(SCc2ccccc2Cl)[nH]c1=O`, the values for the inhibition in assay [1] and in [2] were 44.3% and 45.3%, respectively.
As for `COc1ccccc1NS(=O)(=O)c1cc(-c2n[nH]c(=O)c3ccccc23)ccc1C`, the inhibition in [9] came to 1.26%; in assay [10], 21.7%; in assay [11], 19%.
Take `COc1ccc(-c2nc(SCc3ccccc3Cl)[nH]c(=O)c2C#N)c(OC)c1OC`: the inhibition worked out at 51.7% in assay [1] and 53.1% in assay [2].
Turning to `COc1ccc(CNC(=O)C2CCCN(c3nc4c(-c5ccc(C)cc5)csc4c(=O)[nH]3)C2)cc1` (stereo not drawn), the inhibition in assay [6] amounted to 2.1%; in [9], 3.8%; in assay [10], 29.7%; in assay [11] it was 21.9%.
On the same counts, the results for `COc1cccc(-c2cc(=O)[nH]c(N3CCN(c4ccccc4)CC3)n2)c1` are 1.56%, 11%, 41.7% and 39%.
Regarding `CCOc1ccc(-c2nc(SCc3ccccc3Cl)[nH]c(=O)c2C#N)cc1OCC`, the inhibition in [1] amounted to 55.9%; in assay [2], 56.8%.
The like results for `COc1cc(-c2nc(SCc3ccccc3Cl)[nH]c(=O)c2C#N)cc(Cl)c1OC` were, in that order, 59.6% and 59.7%.
